From patent US5495046A, “Alkoxyphenylalkylamine derivatives” (Taisho Pharmaceutical Co., Ltd., priority 1991, dated 1996)
Structures can show the parent of a compound that is named as a salt. Where two headings read alike, the source gives them in different places.

Experiments:
sigma receptor [1] = target: sigma receptor (Rattus norvegicus, UniProt Q9R0C9); assay: biochemical; assay type: binding, rat (male Wistar)
Protocol: (§1) Receptor Binding Experiment
(§2) As test animals, male Wistar rats were used.
(§3) As a [^3 H]-labeled ligand, (+)[^3 H]3-PPP [3-(3-hydroxyphenyl)-N-n-propylpiperidine] was used for sigma receptor, while (-)[^3 H] sulpiride was used for D2 receptor.
(§4) Binding reactions with the use of these [^3 H]-labeled ligands were performed respectively in accordance with the following methods (1) and (2) described in Molecular Pharmacology, 32, p. 772 (1987) and Journal of Pharmacy and Pharmacology, 32, p. 820 (1987).
(1) (+) [^3 H] 3-PPP binding: A membrane preparation obtained from the whole brain of rat, (+) [^3 H] 3-PPP and a test drug were reacted in a 50 mM Tris hydrochloride buffer (pH 8.0) at 21° C. for 90 minutes.
(§5) After the completion of each reaction, the reaction mixture was filtered under sucking onto a glass filter (GF/B) and the radioactivity of the filter paper was measured with a liquid scintillation spectrometer.
The data obtained by reacting in the presence of 10 μM (+) 3-PPP and 10 μM (-) thiapride were regarded respectively as the nonspecific binding of (+) [^3 H] 3-PPP and (-) [^3 H] sulpiride. Then the difference between the total binding and the nonspecific binding was referred to as the specific binding.

[2] = tested on: (+) SKF 10047-induced abnormal behaviors; assay: Antagonism against (+) SKF 10047-induced abnormal behaviors; assay type: in vivo, ICR male mice; details: Mus musculus
Protocol: Examination on Antagonism Against (+) SKF 10047-induced Abnormal Behaviors
Preparations were formulated by dissolving 10 mg of each test drug in 1 ml of dimethylsulfoxide, diluting with physiological saline to a concentration of […], and further diluting the obtained solution to 0.01 and 0.001 mg/kg (administration dose: 0.1 ml per 10 g body weight of mouse).
The invention compound A, the comparative drug AA and Rimcazole were each orally administered in doses of 0.03, 0.1, 0.3, 1.0, 3.0 and 10.0 mg/kg. Preparations were formulated by suspending in a 5% solution of acacia.
(+) SKF10047 [(+)-N-allylnormetazocine hydrochloride; manufactured by Sigma] was intraperitoneally administered in a dose of 30 mg/kg. The preparation was formulated by dissolving in physiological saline.
As test animals, ICR male mice (Nippon Charles River) aged 4 to 5 weeks were used. Each group had 10 animals.
Each animal was introduced into a transparent acrylic resin cage (24 cm in length×17.5 cm in width×12 cm in height) and allowed to fully adapt to the environment. 35 minutes after the administration of a preparation of a test drug, (+) SKF10047 was administered. […]] were evaluated for 40 minutes at intervals of 5 minutes and the ED25 (mg/kg) was determined.

D2 receptor [3] = target: D2 receptor (Rattus norvegicus, UniProt P61169); assay: Receptor binding experiment: (-)[3H] sulpiride binding; design: species or system rat (male Wistar)
Protocol: as §1, §2, §3, §4
(2) (-) [^3 H] sulpiride binding: A membrane preparation obtained from the corpus striatum of rat, (-) [^3 H] sulpiride and a test drug were reacted in a 50 mM Tris hydrochloride buffer (pH 7.7) at 37° C. for 10 minutes.
as §5
The data obtained by reacting in the presence of 10 μM (+) 3-PPP and 10 μM (-) thiapride were regarded respectively as the nonspecific binding of (+) [^3 H] 3-PPP and (-) [^3 H] sulpiride. Then the difference between the total binding and the nonspecific binding was referred to as the specific binding. The [^3 H]-labeled ligand at a definite concentration and the test drug at various concentrations were reacted under the conditions as specified in the above (1) or (2) to thereby give an inhibition curve.

sigma receptor [4] = details: cited from earlier work
D2 receptor [5] = details: value obtained from spiperone binding; European Journal of Pharmacology, 155, p. 345 (1988); cited from earlier work
[6] = (+)[3H]3-PPP, rat whole brain membrane, pH 8.0, 21° C., 90 minutes
[7] = read-out: 50% inhibitory concentration (IC50), Sigma, (+)[3H]3-PPP, rat whole brain membrane, pH 8.0, 21° C., 90 minutes
[8] = read-out: 50% inhibitory concentration (IC50), D2, (-)[3H] sulpiride, rat corpus striatum membrane, pH 7.7, 37° C., 10 minutes
[9] = (-)[3H] sulpiride, rat corpus striatum membrane, pH 7.7, 37° C., 10 minutes
[10] = oral, 35 minutes before (+) SKF10047 30 mg/kg i.p., stereotypy scores for 40 minutes at intervals of 5 minutes, read-out: ED25

Sequence of D2 receptor (Rattus norvegicus, UniProt P61169) (P61169 whole entry): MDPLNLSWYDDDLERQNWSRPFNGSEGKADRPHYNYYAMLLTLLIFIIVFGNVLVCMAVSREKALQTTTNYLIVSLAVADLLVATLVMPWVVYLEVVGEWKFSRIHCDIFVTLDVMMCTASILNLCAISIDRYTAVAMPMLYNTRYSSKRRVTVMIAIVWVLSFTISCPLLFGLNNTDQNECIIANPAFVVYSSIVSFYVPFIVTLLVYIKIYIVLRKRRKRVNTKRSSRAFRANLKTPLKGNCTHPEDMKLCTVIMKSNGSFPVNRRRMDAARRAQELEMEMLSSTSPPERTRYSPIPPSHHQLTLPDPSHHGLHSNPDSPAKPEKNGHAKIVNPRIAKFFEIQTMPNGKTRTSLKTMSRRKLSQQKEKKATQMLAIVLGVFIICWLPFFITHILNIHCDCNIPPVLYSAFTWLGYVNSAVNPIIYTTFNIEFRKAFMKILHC
Sequence of sigma receptor (Rattus norvegicus, UniProt Q9R0C9) (Q9R0C9 whole entry): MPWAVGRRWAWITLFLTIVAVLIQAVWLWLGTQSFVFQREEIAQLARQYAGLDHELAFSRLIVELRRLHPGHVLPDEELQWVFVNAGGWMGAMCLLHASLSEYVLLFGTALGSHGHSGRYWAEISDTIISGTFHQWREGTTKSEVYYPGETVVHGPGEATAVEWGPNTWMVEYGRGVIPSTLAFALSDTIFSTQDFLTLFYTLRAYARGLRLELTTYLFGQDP

## CCCN1CCCC(c2cccc(O)c2)C1 (single isomer, unassigned) [Compound 3-PPP, 3-(3-hydroxyphenyl)-N-n-propylpiperidine, reference compound]
Sigma receptor [1]; [6]
  IC50: 24.3 nM

## CCCN(CCC)CCc1cc(Cl)ccc1OCCc1ccccc1.O=C(O)C(=O)O [A, N,N-Di-n-propyl-2-[5-chloro-2-(2-phenylethoxy)phenyl]ethylamine oxalate]
[2]; po
  ED25: 0.235 mg/kg
Sigma receptor [1]; [7]
  IC50: 7.21 nM
D2 receptor [3]; [8]
  IC50: 112 nM

## COc1ccc(CCN(C)C)cc1OCc1ccccc1.Cl [AA, N,N-dimethyl-2-(4-methoxy-3-benzyloxyphenyl)ethylamine hydrochloride, reference compound]
[2]; po
  ED25: 23.6 mg/kg
Sigma receptor [1]
  IC50: 94.4 nM
D2 receptor [3]
  IC50: 40800 nM

## CCCN(CCC)CCCc1cc(Cl)ccc1OCCc1ccccc1 [B, N,N-Di-n-propyl-3-[5-chloro-2-(2-phenylethoxy)phenyl]propylamine oxalate]
Sigma receptor [1]; [6]
  IC50: 28.9 nM
D2 receptor [3]; [9]
  IC50: > 1000 nM

## CCCN(CCC)CCCCc1cc(Cl)ccc1OCCc1ccccc1 [C, N,N-Di-n-propyl-4-[5-chloro-2-(2-phenylethoxy)phenyl]butylamine oxalate]
Sigma receptor [1]; [6]
  IC50: 26.4 nM

## CCCN(CCC)CCc1ccc(Cl)cc1OCCc1ccccc1 [D, N,N-Di-n-propyl-2-[4-chloro-2-(2-phenylethoxy)phenyl]ethylamine hydrochloride]
Sigma receptor [1]; [7]
  IC50: 17.9 nM
D2 receptor [3]
  IC50: 1450 nM

## CCCN(CCC)CCc1cc(Br)ccc1OCCc1ccccc1 [E, N,N-Di-n-propyl-2-[5-bromo-2-(2-phenylethoxy)phenyl]ethylamine oxalate]
Sigma receptor [1]; [7]
  IC50: 11.1 nM
D2 receptor [3]; [8]
  IC50: 169 nM

## CCCN(CCC)CCCc1cc(Br)ccc1OCCc1ccccc1 [F, N,N-Di-n-propyl-3-[5-bromo-2-(2-phenylethoxy)phenyl]propylamine oxalate]
Sigma receptor [1]; [7]
  IC50: 10.9 nM
D2 receptor [3]; [8]
  IC50: 438 nM

## CCCN(CCC)CCc1cc(F)ccc1OCCc1ccccc1 [G, N,N-Di-n-propyl-2-[5-fluoro-2-(2-phenylethoxy)phenyl]ethylamine hydrochloride]
Sigma receptor [1]
  IC50: 13.3 nM
D2 receptor [3]
  IC50: 1910 nM

## CCCN(CCC)CCc1cccc(F)c1OCCc1ccccc1 [H, N,N-Di-n-propyl-2-[3-fluoro-2-(2-phenylethoxy)phenyl]ethylamine oxalate]
Sigma receptor [1]
  IC50: 21.6 nM
D2 receptor [3]
  IC50: 3520 nM

## CCCN(CCC)CCc1ccc(OC)c(OCCc2ccccc2)c1.O=C(O)C(=O)O [I, N,N-Di-n-propyl-2-[4-methoxy-3-(2-phenylethoxy)phenyl]ethylamine oxalate]
[2]; po
  ED25: 0.0008 mg/kg
D2 receptor [3]
  IC50: > 1000 nM

## CCCN(CCC)CCCc1ccc(OC)c(OCCc2ccccc2)c1.O=C(O)C(=O)O [J, N,N-Di-n-propyl-3-[4-methoxy-3-(2-phenylethoxy)phenyl]propylamine oxalate]
[2]; [10]
  ED25: 0.00263 mg/kg
Sigma receptor [1]; [6]
  IC50: 0.984 nM
D2 receptor [3]; [8]
  IC50: 950 nM

## CCCN(CCC)CCc1ccc(OC)c(OCCCc2ccccc2)c1 [K, N,N-Di-n-propyl-2-[4-methoxy-3-(3-phenylpropoxy)phenyl]ethylamine oxalate]
Sigma receptor [1]; [7]
  IC50: 4.7 nM

## COc1ccc(CCN2CCN(c3ccccc3)CC2)cc1OCCc1ccccc1 [L, N-2-[4-Methoxy-3-(2-phenylethoxy)phenyl]ethyl-N'-phenylpiperazine oxalate]
Sigma receptor [1]; [7]
  IC50: 33 nM
D2 receptor [3]; [8]
  IC50: 183 nM

## CCCN(CCC)CCc1ccc(O)c(OCCc2ccccc2)c1 [M, N,N-Di-n-propyl-2-[4-hydroxy-3-(2-phenylethoxy)phenyl]ethylamine hydrochloride]
Sigma receptor [1]; [7]
  IC50: 3.09 nM
D2 receptor [3]
  IC50: 2500 nM

## CCCN(CCC)CCc1ccc(OC)c(OCCc2ccc(F)cc2)c1 [N, N,N-Di-n-propyl-2-[4-methoxy-3-[2-(4-fluorophenyl)ethoxy]phenyl]ethylaminehydrochloride]
Sigma receptor [1]
  IC50: 1.03 nM
D2 receptor [3]; [9]
  IC50: > 10000 nM

## CCCN(CCC)CCc1ccc(OC)c(OCCc2cccc(Cl)c2)c1 [O, N,N-Di-n-propyl-2-[4-methoxy-3-[2-(3-chlorophenyl)ethoxy]phenyl]ethylamineoxalate]
Sigma receptor [1]; [7]
  IC50: 1.49 nM
D2 receptor [3]; [9]
  IC50: 6600 nM

## CCCN(CCC)CCc1ccc(OC)c(OCCc2ccc(OC)cc2)c1 [P, N,N-Di-n-propyl-2-[4-methoxy-3-[2-(4-methoxyphenyl)ethoxy]phenyl]ethylamine oxalate]
Sigma receptor [1]
  IC50: 1.03 nM
D2 receptor [3]
  IC50: 4990 nM

## CCCN(CCC)CCc1ccc(OC)c(OCCc2cccs2)c1 [Q, N,N-Di-n-propyl-2-[4-methoxy-3-[2-(2-thienyl)ethoxy]phenyl]ethylamine hydrochloride]
Sigma receptor [1]; [7]
  IC50: 9.35 nM
D2 receptor [3]
  IC50: > 10000 nM

## CCCN(CCC)CCc1ccc(OCCc2ccccc2)c(OC)c1 [R, N,N-Di-n-propyl-2-[3-methoxy-4-(2-phenylethoxy)phenyl]ethylamine oxalate]
Sigma receptor [1]
  IC50: 11.5 nM
D2 receptor [3]
  IC50: > 10000 nM

## C[C@@H]1CN(CCCn2c3ccccc3c3ccccc32)C[C@H](C)N1 [Rimcazole]
Sigma receptor [4]; background art statement
  affinity and specificity for sigma receptor (in words): restricted
Sigma receptor [4]; data of European Journal of Pharmacology, 155, p. 345 (1988)
  IC50: 1640 nM
[2]; [10]
  ED25: 37 mg/kg
D2 receptor [5]
  IC50: 86000 nM

## CCCN(CCCO)CCc1ccc(OC)c(OCCc2ccccc2)c1 [S, N-n-propyl-N-3-hydroxypropyl-2-[4-methoxy-3-(2-phenylethoxy)phenyl]ethylamine oxalate]
Sigma receptor [1]; [6]
  IC50: 18.5 nM
D2 receptor [3]; [9]
  IC50: > 10000 nM

## CCCN(CCC)CCc1cccc(OC)c1OCCc1ccccc1.O=C(O)C(=O)O [T, N,N-Di-n-propyl-2-[3-methoxy-2-(2-phenylethoxy)phenyl]ethylamine oxalate]
[2]; po
  ED25: 0.0017 mg/kg
Sigma receptor [1]; [7]
  IC50: 2.71 nM
D2 receptor [3]
  IC50: > 10000 nM

## CCCN(CCC)CCCc1cccc(OC)c1OCCc1ccccc1 [U, N,N-Di-n-propyl-3-[3-methoxy-2-(2-phenylethoxy)phenyl]propylamine oxalate]
Sigma receptor [1]; [6]
  IC50: 12.5 nM

## CCCN(CCC)CCc1cccc(OC)c1OCCCc1ccccc1 [V, N,N-Di-n-propyl-2-[3-methoxy-2-(3-phenylpropoxy)phenyl]ethylamine oxalate]
Sigma receptor [1]
  IC50: 1.65 nM

## COc1cccc(CCN2CCCC2)c1OCCc1ccccc1 [W, N-2-[3-Methoxy-2-(2-phenylethoxy)phenyl]ethylpyrrolidine oxalate]
D2 receptor [3]
  IC50: 5350 nM

## CCCN(CCC)CCc1cc(OC)ccc1OCCc1ccccc1 [X, N,N-Di-n-propyl-2-[5-methoxy-2-(2-phenylethoxy)phenyl]ethylamine hydrochloride]
Sigma receptor [1]; [7]
  IC50: 7.06 nM
D2 receptor [3]; [8]
  IC50: 791 nM

## CCCN(CCC)CCc1ccc(OC)cc1OCCc1ccccc1 [Y, N,N-Di-n-propyl-2-[4-methoxy-2-(2-phenylethoxy)phenyl]ethylamine oxalate]
Sigma receptor [1]; [7]
  IC50: 6.6 nM
D2 receptor [3]
  IC50: 2350 nM

## CCCN(CCC)CCc1ccc(OCCc2ccccc2)cc1OC [Z, N,N-Di-n-propyl-2-[2-methoxy-4-(2-phenylethoxy)phenyl]ethylamine oxalate]
Sigma receptor [1]; [7]
  IC50: 6.83 nM
D2 receptor [3]
  IC50: 9180 nM
